This is an account of results in paper PMC4604091, “Two homolog wheat Glycogen Synthase Kinase 3/SHAGGY - like kinases are involved in brassinosteroid signaling” (BMC Plant Biology, 2015).

Bounds are passed on as bounds.

In one assay the target is T1, BIN2 (Arabidopsis thaliana, UniProt Q39011).
T1 construct: gene ASK7; full length, N-terminal GST fusion, expressed in E. coli, glutathione Sepharose purified, tag kept
T1 sequence (Q39011 1-380): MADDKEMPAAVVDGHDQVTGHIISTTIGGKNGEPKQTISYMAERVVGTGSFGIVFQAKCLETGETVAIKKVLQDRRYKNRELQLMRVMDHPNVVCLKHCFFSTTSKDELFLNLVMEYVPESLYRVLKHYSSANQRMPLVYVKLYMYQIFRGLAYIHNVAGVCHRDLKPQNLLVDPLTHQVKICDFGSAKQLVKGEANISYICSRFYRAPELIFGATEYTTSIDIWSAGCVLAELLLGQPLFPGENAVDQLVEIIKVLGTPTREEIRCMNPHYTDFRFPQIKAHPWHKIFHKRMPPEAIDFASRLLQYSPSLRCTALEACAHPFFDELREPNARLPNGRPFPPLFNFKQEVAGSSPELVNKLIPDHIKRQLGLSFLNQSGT
Description: in vitro kinase assay, […] phosphorylation of myelin basic protein, autoradiography. The format is biochemical. As to conditions: read-out: % residual activity at 15 μM.

A further assay concerns the target T2, TaGSK1 (Triticum aestivum, UniProt Q8LK43).
T2 construct: full length, N-terminal GST fusion, expressed in E. coli, glutathione Sepharose purified, tag kept
The description is as above. Type of assay: biochemical. To be noted: read-out: % residual activity at 15 μM.

T2 sequence (Q8LK43 1-381): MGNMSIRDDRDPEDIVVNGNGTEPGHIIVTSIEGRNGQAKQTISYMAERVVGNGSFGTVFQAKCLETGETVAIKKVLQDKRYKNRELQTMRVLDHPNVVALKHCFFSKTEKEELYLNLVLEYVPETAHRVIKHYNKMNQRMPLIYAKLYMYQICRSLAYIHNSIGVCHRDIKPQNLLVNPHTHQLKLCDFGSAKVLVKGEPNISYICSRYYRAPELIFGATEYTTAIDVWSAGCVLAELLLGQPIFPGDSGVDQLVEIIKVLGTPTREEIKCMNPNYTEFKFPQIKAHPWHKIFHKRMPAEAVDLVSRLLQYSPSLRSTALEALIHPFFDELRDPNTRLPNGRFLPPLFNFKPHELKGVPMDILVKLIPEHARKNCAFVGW

With `O=C(O)CCC(=O)Nc1ccc(Br)cn1` [Bikinin, 4-[(5-bromo-2-pyridinyl)amino]-4-oxobutanoic acid], the results for the remaining activity at 15 µM at BIN2 and at TaGSK1 were below 5% and around 30%, respectively.
